Source: patent US20220288034A1, “METHOD OF REDUCING ABERRANT IMMUNE RESPONSE OR RISK OF PROGRESSION IN COVID-19” (CELLTAXIS, LLC, priority 2021, published 2022)

Molecular target: T1, LTA4H (Homo sapiens, UniProt P09960)
T1 sequence (P09960 1-611): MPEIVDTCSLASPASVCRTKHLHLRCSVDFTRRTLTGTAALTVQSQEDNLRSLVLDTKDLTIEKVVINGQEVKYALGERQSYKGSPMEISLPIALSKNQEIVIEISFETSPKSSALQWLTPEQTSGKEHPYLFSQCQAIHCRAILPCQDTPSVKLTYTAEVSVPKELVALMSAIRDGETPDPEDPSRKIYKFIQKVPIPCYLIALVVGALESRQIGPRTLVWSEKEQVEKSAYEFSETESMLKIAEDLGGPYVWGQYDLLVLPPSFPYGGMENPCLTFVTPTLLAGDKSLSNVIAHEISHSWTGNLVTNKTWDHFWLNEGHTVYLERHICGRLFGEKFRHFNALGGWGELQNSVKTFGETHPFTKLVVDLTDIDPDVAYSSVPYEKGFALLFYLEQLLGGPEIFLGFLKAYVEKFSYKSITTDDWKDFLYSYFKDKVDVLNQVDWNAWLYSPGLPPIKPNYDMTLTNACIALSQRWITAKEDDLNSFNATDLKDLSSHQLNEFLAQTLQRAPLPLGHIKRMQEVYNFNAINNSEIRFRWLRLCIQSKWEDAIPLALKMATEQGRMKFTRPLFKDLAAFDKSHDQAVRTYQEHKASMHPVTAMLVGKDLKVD
Experiment: In vitro inhibition of epoxide hydrolase enzymatic activity of LTA4H (LTB4 production)
Assay type: biochemical

## O=C(O)c1ccc(CN2C[C@@H]3C[C@H]2CN3Cc2ccc(Oc3ccc(-c4ncco4)cc3)cc2)cc1 [acebilustat, 4-{[(1 S,4S)-5-({4-[4-oxazol-2-yl-phenoxy]phenyl}methyl)-2,5-diazabicyclo[2.2.1]heptan-2-yl]methyl}benzoic acid]
  IC50: 13.1 nM
